Measurements published in publication PMC11881906, “Development of xanthone derivatives as effective broad-spectrum antimicrobials: Disrupting cell wall and inhibiting DNA synthesis” (Science Advances, 2025).
In brackets after ≈: the same amount, converted by molar mass. Read-outs that look alike come from different tables or passages of the source.

Legend:
[1] = system: MRSA N315; assay: MIC, broth microdilution; assay type: cell-based; conditions: Staphylococcus aureus, read-out: MIC90 MRSA N315
Protocol: (§1) MIC was determined using the broth microdilution method in accordance with Clinical and Laboratory Standards Institute guidelines. All compounds were dissolved in dimethyl sulfoxide (DMSO; final DMSO concentration of less than 0.5%) and sterile double-distilled water and then diluted with Mueller-Hinton broth (MHB). Each compound’s stock solution was serially twofold diluted, resulting in concentrations ranging from 0.39 to 100 μg/ml, and thereafter added to sterile 96-well plates. All bacterial cell suspensions were adjusted in MHB to attain a starting inoculum of 1 × 10^6 cells/ml. A total of 100 μl volume of the bacterial suspension was then added to each well. Following a 24-hour incubation at 37°C, the optical density at 600 nm (OD600) was confirmed by measuring absorbance at 600 nm with a BioTek microplate reader. […] All measurements were repeated three times with duplicates each time.

[2] = system: MRSA NCTC 10442; assay: MIC, broth microdilution; assay type: cell-based; conditions: Staphylococcus aureus, read-out: MIC90 MRSA NCTC 10442
Protocol: as §1

[3] = system: S. aureus ATCC 29213; assay: MIC, broth microdilution; assay type: cell-based; conditions: Staphylococcus aureus, ATCC29213, 24 h, read-out: MIC90 S. aureus ATCC 29213
Protocol: as §1

[4] = system: E. coli ATCC 25922; assay: MIC, broth microdilution; assay type: cell-based, Escherichia coli; conditions: for MIC90: Escherichia coli, ATCC25922, 24 h, read-out: MIC90 E. coli ATCC 25922
Protocol: as §1

[5] = system: rabbit erythrocytes; assay: Hemolysis assay; assay type: cell-based; conditions: concentration causing 50% hemolysis of red blood cells; 1 hour, 37°C
Protocol: The hemolytic activity of antimicrobial agents was investigated as previously described ([70]). Briefly, the rabbit erythrocytes were centrifuged at 2500 rpm for 3 min before being washed twice with sterile phosphate-buffered saline (PBS) (pH 7.4). Subsequently, the erythrocytes were diluted with PBS to a final concentration of 8% (v/v). The DMSO-dissolved compounds were twofold serially diluted in PBS to achieve a final concentration with DMSO less than 0.5%. […] Sterile PBS and 0.2% Triton X-100 were used as negative and positive controls, respectively. After 1 hour of incubation at 37°C, the tested samples were centrifuged at 2500 rpm for 5 min, and aliquots of the supernatant were added to 96-well microplates. The hemoglobin release was determined by measuring the absorbance at 576 nm using a BioTek multimode reader. The percentage of hemolytic activity was calculated using the following formula: Hemolysis rate (%) = [OD576 (compound) − OD576 (PBS)]/[OD576 (Triton X-100) − OD576 (PBS)] × 100. All measurements were repeated three times with duplicates each time.

[6] = system: S. aureus ATCC 29213; assay: Time-kill kinetic assay; assay type: cell-based, Staphylococcus aureus; conditions: 10× MIC, 24 hours
Protocol: The bacterial cultures were standardized to obtain an initial density that ranged from 10^5 to 10^6 cells/ml. The cultures were incubated in a shaking bath at 37°C. Viable counts were determined at 0-, 0.5-, 1.0-, 2.0-, 4.0-, 8.0-, and 24-hour intervals by spotting 10-μl aliquots of serially 10-fold diluted cultures onto Mueller-Hinton agar (MHA) plates. […] All measurements were repeated three times with duplicates each time.

[7] = system: S. aureus ATCC 29213; assay: Murine corneal infection model; assay type: in vivo, mice; conditions: topical, four times daily for 3 days; XT17 5 mg/ml, vancomycin 50 mg/ml; vs 5% glucose control
Description: (§2) Female C57BL/6 mice (average weight, 20 g) were used for the in vivo efficacy experiments. Mice were housed in a specific pathogen–free facility on a 12-hour light-dark cycle, under the condition with ad libitum access to irradiation sterilized rodent diet and aseptic water. […]. These in vivo experiments were approved by the Experimental Animal Center of South China Agricultural University and conducted in accordance with the policies of the Ministry of Health of China.
(§3) The in vivo efficacy of compound XT17 was investigated in a murine corneal infection model. Before infection, the mice were immunosuppressed with three intraperitoneal injections of cyclophosphamide (100 mg/kg) over 5 days. After anesthesia with 2.5% avertin (500 mg/kg, ip), the left corneas of mice were scratched with 15 μl of S. aureus ATCC 29213 or P. aeruginosa ATCC 9027 (approximately 5 × 10^7 CFU/ml). Following 1 day of infection, the infected mice were randomly assigned into […] (n = 5) and subsequently administered with 0.5% compound XT17, 5% glucose solution, 5% vancomycin, or 0.3% gatifloxacin topically. S. aureus–caused murine corneal infections were treated four times a day for three consecutive days. Only 2 days of treatment were given for P. aeruginosa–caused murine corneal infections. On the first day, the drug was administered every 20 min for 1 hour and then three times at 2-hour intervals on the second day. The mice were given a 5% glucose solution as a negative control in the absence of any antimicrobial agent treatment. The infected corneas were collected after the mice were euthanized, and the number of viable bacteria was counted using MHA plates.

[8] = system: P. aeruginosa ATCC 9027; assay: Murine corneal infection model; assay type: in vivo, mice; conditions: topical, 2 days; XT17 5 mg/ml, gatifloxacin 3 mg/ml; vs 5% glucose control
Description: as §2, §3

[9] = system: A. baumannii ATCC 17978; assay: MIC, broth microdilution; assay type: cell-based; conditions: Acinetobacter baumannii, ATCC17978; 24-hour incubation, MHB
Protocol: as §1

[10] = system: A. baumannii R2889; assay: MIC, broth microdilution; assay type: cell-based; conditions: Acinetobacter baumannii, 24-hour incubation, MHB
Protocol: as §1

[11] = system: K. pneumonia ATCC 10031; assay: MIC, broth microdilution; assay type: cell-based; conditions: Klebsiella pneumoniae, ATCC10031; 24-hour incubation, MHB
Protocol: as §1

[12] = system: K. pneumonia ATCC 14581; assay: MIC, broth microdilution; assay type: cell-based; conditions: Klebsiella pneumoniae, ATCC14581; 24-hour incubation, MHB
Protocol: as §1

[13] = system: P. aeruginosa ATCC 9027; assay: MIC, broth microdilution; assay type: cell-based; conditions: Pseudomonas aeruginosa, ATCC9027; 24-hour incubation, MHB
Protocol: as §1

[14] = system: Gram-positive bacteria; assay: MIC, summary over Gram-positive strains; assay type: cell-based; conditions: read-out: MICs against Gram-positive bacteria, three Gram-positive strains
Protocol: as §1

[15] = system: K. pneumoniae; assay: MIC, summary over K. pneumoniae strains; assay type: cell-based; conditions: Klebsiella pneumoniae, two strains; read-out: MICs against K. pneumoniae
Protocol: as §1

[16] = CCK-8 cytotoxicity assay; assay type: cell-based; conditions: mouse, NCTC clone 929 fibroblast cells, 25 μg/ml, read-out: %Viable cells NCTC clone 929 cells
Protocol: Cytotoxicity of the compound tested was assessed by CCK-8 assays as previously described ([71]). […] Following a 24-hour incubation, 10 μl of CCK-8 reagent was added to each well and incubated for 1 hour. The absorbance at 450 nm was measured by a microplate reader. All measurements were repeated three times with duplicates each time.

CN[C@H](CC(C)C)C(=O)N[C@H]1C(=O)N[C@@H](CC(N)=O)C(=O)N[C@H]2C(=O)N[C@H]3C(=O)N[C@H](C(=O)N[C@H](C(=O)O)c4cc(O)cc(O)c4-c4cc3ccc4O)[C@H](O)c3ccc(c(Cl)c3)Oc3cc2cc(c3O[C@@H]2O[C@H](CO)[C@@H](O)[C@H](O)[C@H]2O[C@H]2C[C@](C)(N)[C@H](O)[C@H](C)O2)Oc2ccc(cc2Cl)[C@H]1O [VAN, vancomycin, reference compound]
MIC90 ([1]; 24 h): 1.56 µg/mL (≈ 1.08 µM)
MIC90 ([2]; 24 h): 1.56 µg/mL (≈ 1.08 µM)
MIC90 [3]: 0.78 µg/mL (≈ 0.538 µM)
MIC90 [4]: > 50 µg/mL
HC50 [5]: >200 µg/mL
log decrease in bacterial load [6]: 4.56 log
log reduction in viable bacterial colonies in the infected corneas [7]: 5.57 log

COc1c(N2CCNC(C)C2)c(F)cc2c(=O)c(C(=O)O)cn(C3CC3)c12 (stereo not shown) [gatifloxacin, reference compound]
log reduction in viable bacterial colonies in the infected corneas [8]: 3.08 log

CC(C)=CCOc1cc(OCCCCCCNC(=N)N)cc2oc3cc(OCCCCCCNC(=N)N)ccc3c(=O)c12 [XT44]
MIC90 [9]: 6.25 µg/mL (≈ 10.5 µM)
MIC90 [10]: 12.5 µg/mL (≈ 21 µM)
MIC90 [11]: 0.78 µg/mL (≈ 1.31 µM)
MIC90 [12]: 0.78 µg/mL (≈ 1.31 µM)
MIC90 ([1]; 24-hour incubation, MHB): 0.098 µg/mL (≈ 0.165 µM)
MIC90 ([2]; 24-hour incubation, MHB): 0.098 µg/mL (≈ 0.165 µM)
MIC90 [13]: 25 µg/mL (≈ 42 µM)
MIC90 ([3]; 24-hour incubation, MHB): 0.098 µg/mL (≈ 0.165 µM)
MIC90 E. coli ATCC 25922 ([4]; 24-hour incubation, MHB): 1.56 µg/mL (≈ 2.62 µM)
MIC90 ([4]; 24-hour incubation, MHB): 1.56 to 12.5 µg/mL (≈ 2.62 to 21 µM)
HC50 [5]: >200 µg/mL
MIC [14]: 0.098 to 1.56 µg/mL (≈ 0.165 to 2.62 µM)
MIC [15]: 0.78 µg/mL (≈ 1.31 µM)
viability at 24 h, 25 μg/ml [16]: 4.87 ± 0.4%
